Test results: US12410152B2, “Oxazole and thioazole-type cullin ring ubiquitin ligase compounds and uses thereof” (Proxygen GmbH, priority 2019, dated 2025)

Test system: KBM7 WT cells (global proteome)
Test: Quantitative expression proteomics (TMT isobaric tagging), drug vs DMSO
Type: cell-based, human
Text: The mechanism by which the assayed molecules re-program a functional CRL4B complex based on the data shown could be that drug binding to CUL4B recruits a neo-substrate directly to the cullin backbone. Alternatively, drug binding could stabilize CUL4B function to boost time intervals where a functionally competent CUL4B complexes can be formed. Here, the word “functional” implies that the CUL4B backbone of this complex needs to be neddylated, and a CUL4B associated E2 ubiquitin-conjugating enzyme (UBE2G1) needs to be bound. FIG. 9 outlines one possible mechanism. Both predicted mechanisms of action would result in a functionally altered CRL4B complex, and thus an altered stability of drug-induced (neo-) substrates. In order to identify target proteins with a decreased abundance or, in other words, target proteins that become degraded by CRL4B after drug treatment, global proteome composition was measured using quantitative expression proteomics (TMT-labeling). In brief, KBM7 cells were drug treated for 12 hours, lysed, and subjected to isobaric tagging. Ensuing proteomics analysis quantified a total of 7,903 proteins at a minimum spectral count of 2. […] Data on essentiality are taken from Hart et al., G3, August 2017 (PMID: 28655737).
50×10^6 KBM7^WT cells per condition were collected, washed four times with ice-cold PBS, the supernatant aspirated and pellets snap-frozen in liquid N2. Each washed cell pellet was lysed separately in 40 μL of freshly prepared lysis buffer as previously described (see Mayor-Ruiz et al., Mol Cell 2019)
Offline Fractionation via RP-HPLC at high pH and 2D-RP/RP Liquid Chromatography Mass Spectrometry were performed as previously described (see Mayor-Ruiz et al., Mol Cell 2019).
Acquired raw data files were processed using the Proteome Discoverer 2.2.0 platform, utilizing the Sequest HT database search engine and Percolator validation software node (V3.04) to remove false positives with a false discovery rate (FDR) of 1% on peptide and protein level under strict conditions. Searches were performed with full tryptic digestion against the human SwissProt database v2017.06 with up to two allowed miscleavage sites. Oxidation (+15.9949 Da) of methionine was set as variable modification, whilst carbamidomethylation (+57.0214 Da) of cysteine residues and TMT 6-plex labelling of peptide N-termini and lysine residues were set as fixed modifications. Data was searched with mass tolerances of ±10 ppm and ±0.02 Da on the precursor and fragment ions, respectively. Results were filtered to include peptide spectrum matches (PSMs) with Sequest HT cross-correlation factor (Xcorr) scores of […] and high peptide confidence assigned by Percolator. MS^2 signal-to-noise values (S/N) values of TMT reporter ions were used to estimate peptide/protein abundance changes. PSMs with precursor isolation interference values of ≥ 50% and average TMT-reporter ion S/N≤10 were excluded from quantitation. Only unique peptides were used for TMT quantitation as well as for TOP3 label-free quantitation. Isotopic impurity correction and TMT channel-normalization based on total peptide amount were applied. For statistical analysis and p-value calculation, the integrated ANOVA hypothesis test was used. TMT ratios with p-values below 0.01 were considered as significant. Only proteins with >1 peptide detected and >1 unique peptide detected were considered for further analysis. For the calling of destabilized proteins, a log 2 fold change threshold (drug/DMSO) of −0.3 was applied.
Comparison of overall proteome-wide changes in KBM7 cells treated with IC020772.1 (2.5 μM), IC021313.2 (7 μM) or T6938051 (3.5 μM) for 5 h and 12h, using quantitative proteomics based on isobaric tagging.
The protein names in Table 4, Table 5 and Table 6 refer to the protein names as provided by HUGO Gene Nomenclature Committee (HGNC) database. […]

O=C(CSc1nnc2c(n1)[nH]c1ccccc12)Nc1ccc(Cl)cn1 [IC020772.1]
log2FC (IC020772.1/DMSO) (ACD (Q96AP0-1)): −0.567
log2FC (IC020772.1/DMSO) (AEN (Q8WTP8-2)): −0.5522
log2FC (IC020772.1/DMSO) (ANTXR2 (P58335-4)): −0.5522
log2FC (IC020772.1/DMSO) (APEX2 (Q9UBZ4)): −1.224
log2FC (IC020772.1/DMSO) (APOB (P04114)): −0.5002
log2FC (IC020772.1/DMSO) (APOL2 (Q9BQE5)): −0.5585
log2FC (IC020772.1/DMSO) (ARSK (Q6UWY0)): −0.486
log2FC (IC020772.1/DMSO) (ASPM (Q8IZT6-1)): −0.5416
log2FC (IC020772.1/DMSO) (BICD1 (Q96G01-1)): −0.5479
log2FC (IC020772.1/DMSO) (BTBD10 (Q9BSF8-2)): −0.6371
log2FC (IC020772.1/DMSO) (C8orf59 (Q8N0T1-1)): −1.442
log2FC (IC020772.1/DMSO) (C12orf45 (Q8N5I9)): −0.5479
log2FC (IC020772.1/DMSO) (CCDC32 (Q9BV29-2)): −1.221
log2FC (IC020772.1/DMSO) (CCDC61 (Q9Y6R9-1)): −0.567
log2FC (IC020772.1/DMSO) (CCNB1 (P14635-1)): −0.5416
log2FC (IC020772.1/DMSO) (CCND3 (P30281-1)): −0.5479
log2FC (IC020772.1/DMSO) (CDC6 (Q99741)): −1.201
log2FC (IC020772.1/DMSO) (CDC7 (O00311-1)): −0.5585
log2FC (IC020772.1/DMSO) (CDCA7 (Q9BWT1-1)): −1.311
log2FC (IC020772.1/DMSO) (CEP70 (Q8NHQ1-1)): −0.4941
log2FC (IC020772.1/DMSO) (CHEK1 (O14757-1)): −0.5522
log2FC (IC020772.1/DMSO) (CLIP1 (P30622-2)): −0.4982
log2FC (IC020772.1/DMSO) (CLK2 (P49760-1)): −0.5395
log2FC (IC020772.1/DMSO) (CNTLN (Q9NXG0-2)): −0.5585
log2FC (IC020772.1/DMSO) (CSPP1 (Q1MSJ5-3)): −0.4961
log2FC (IC020772.1/DMSO) (CTNNAL1 (Q9UBT7-1)): −0.5564
log2FC (IC020772.1/DMSO) (Cllorf98 (E9PRG8)): −0.6304
log2FC (IC020772.1/DMSO) (DDX28 (Q9NUL7)): −0.5437
log2FC (IC020772.1/DMSO) (DHFR (P00374-1)): −0.4961
log2FC (IC020772.1/DMSO) (DNAJB12 (Q9NXW2-1)): −0.5458
log2FC (IC020772.1/DMSO) (DNAJB14 (Q8TBM8-1)): −0.5374
log2FC (IC020772.1/DMSO) (DPH3 (Q96FX2-1)): −0.5564
log2FC (IC020772.1/DMSO) (DSG2 (Q14126)): −0.5692
log2FC (IC020772.1/DMSO) (E2F4 (Q16254)): −0.486
log2FC (IC020772.1/DMSO) (ERICH5 (Q6P6B1-1)): −0.6371
log2FC (IC020772.1/DMSO) (EVI2B (P34910-2)): −0.6282
log2FC (IC020772.1/DMSO) (FAM177A1 (Q8N128-2)): −0.486
log2FC (IC020772.1/DMSO) (FNDC3B (Q53EP0-1)): −0.6371
log2FC (IC020772.1/DMSO) (FYTTD1 (Q96QD9-1)): −1.279
log2FC (IC020772.1/DMSO) (GAB1 (Q13480-2)): −0.5564
log2FC (IC020772.1/DMSO) (GOSR1 (O95249-1)): −0.4961
log2FC (IC020772.1/DMSO) (GPT2 (Q8TD30-1)): −0.5564
log2FC (IC020772.1/DMSO) (GTSE1 (Q9NYZ3)): −0.4941
log2FC (IC020772.1/DMSO) (HAUS1 (Q96CS2-1)): −0.5043
log2FC (IC020772.1/DMSO) (HLTF (Q14527-1)): −0.5543
log2FC (IC020772.1/DMSO) (IL27RA (Q6UWB1)): −0.5458
log2FC (IC020772.1/DMSO) (JADE2 (Q9NQC1-1)): −0.5395
log2FC (IC020772.1/DMSO) (JMJD6 (Q6NYC1-3)): −0.5522
log2FC (IC020772.1/DMSO) (JUP (P14923)): −0.484
number of proteins significantly downregulated (log2FC < -0.3), destabilized proteins (KBM7 cells, 12 hours, ~10xEC50, 7,903 proteins quantified): 869
number of downregulated proteins known to be implicated in KBM7 proliferation (essential for KBM7 viability) (KBM7 cells, 12 hours, essentiality from Hart et al. 2017): 147
log2FC (IC020772.1/DMSO) (KBTBD7 (Q8WVZ9)): −0.5353
log2FC (IC020772.1/DMSO) (LIMD2 (Q9BT23)): −0.6282
log2FC (IC020772.1/DMSO) (MTR (Q99707-1)): −0.5395
log2FC (IC020772.1/DMSO) (NARF (Q9UHQ1-2)): −0.488
log2FC (IC020772.1/DMSO) (NCR3LG1 (Q68D85)): −0.488
log2FC (IC020772.1/DMSO) (NDC80 (O14777)): −0.5585
log2FC (IC020772.1/DMSO) (NKAPD1 (Q6ZUT1-2)): −0.488
log2FC (IC020772.1/DMSO) (NKIRAS1 (Q9NYS0)): −0.5374
log2FC (IC020772.1/DMSO) (NLK (Q9UBE8)): −0.4982
log2FC (IC020772.1/DMSO) (NPAT (Q14207)): −0.6439
log2FC (IC020772.1/DMSO) (NUF2 (Q9BZD4)): −0.6282
log2FC (IC020772.1/DMSO) (NXF3 (Q9H4D5-1)): −0.5628
log2FC (IC020772.1/DMSO) (PCLAF (Q15004-1)): −1.248
log2FC (IC020772.1/DMSO) (PDCD2 (Q16342-1)): −0.5585
log2FC (IC020772.1/DMSO) (PEX19 (P40855-1)): −0.488
log2FC (IC020772.1/DMSO) (PHF8 (Q9UPP1-4)): −0.4961
log2FC (IC020772.1/DMSO) (PIAS4 (Q8N2W9)): −0.4901
log2FC (IC020772.1/DMSO) (PIBF1 (Q8WXW3-1)): −0.5002
log2FC (IC020772.1/DMSO) (PIP5K1A (Q99755-3)): −0.5479
log2FC (IC020772.1/DMSO) (PRR14L (Q5THK1-1)): −0.5458
log2FC (IC020772.1/DMSO) (PUM2 (Q8TB72-1)): −0.5585
log2FC (IC020772.1/DMSO) (RELT (Q969Z4)): −0.4901
log2FC (IC020772.1/DMSO) (RIOK2 (Q9BVS4-1)): −0.6394
log2FC (IC020772.1/DMSO) (RLIM (Q9NVW2-1)): −0.5458
log2FC (IC020772.1/DMSO) (RNF149 (Q8NC42)): −0.55
log2FC (IC020772.1/DMSO) (RNF219 (Q5W0B1)): −0.6506
log2FC (IC020772.1/DMSO) (RTEL1 (Q9NZ71-2)): −0.5395
log2FC (IC020772.1/DMSO) (SCAND1 (P57086)): −1.377
log2FC (IC020772.1/DMSO) (SCARF1 (Q14162-1)): −1.297
log2FC (IC020772.1/DMSO) (SDHAF3 (Q9NRP4)): −0.6349
log2FC (IC020772.1/DMSO) (SIK2 (Q9H0K1)): −0.4961
log2FC (IC020772.1/DMSO) (SLC19A1 (P41440-1)): −0.6326
log2FC (IC020772.1/DMSO) (SLCO4A1 (Q96BD0-1)): −0.5043
log2FC (IC020772.1/DMSO) (SNAP29 (O95721)): −0.6282
log2FC (IC020772.1/DMSO) (SPHK2 (Q9NRA0-5)): −0.6439
log2FC (IC020772.1/DMSO) (STXBP4 (Q6ZWJ1-1)): −0.5043
log2FC (IC020772.1/DMSO) (TFAP4 (Q01664)): −0.5585
log2FC (IC020772.1/DMSO) (TMED1 (Q13445)): −0.5395
log2FC (IC020772.1/DMSO) (TMEM126B (Q8IUX1-1)): −0.4961
log2FC (IC020772.1/DMSO) (TPK1 (Q9H3S4-1)): −0.5543
log2FC (IC020772.1/DMSO) (TPT1 (P13693-1)): −0.4982
log2FC (IC020772.1/DMSO) (TRMT44 (Q8IYL2-1)): −0.5416
log2FC (IC020772.1/DMSO) (TRUB2 (O95900-1)): −0.6371
log2FC (IC020772.1/DMSO) (TTC21B (Q7Z4L5-1)): −0.4901
log2FC (IC020772.1/DMSO) (UBE2A (P49459-1)): −0.4921
log2FC (IC020772.1/DMSO) (UBE2J2 (Q8N2K1-3)): −0.55
log2FC (IC020772.1/DMSO) (UBL5 (Q9BZL1)): −0.5522
log2FC (IC020772.1/DMSO) (UBXN2B (Q14CS0)): −0.5374
log2FC (IC020772.1/DMSO) (USP38 (Q8NB14-1)): −0.4941
log2FC (IC020772.1/DMSO) (ZFAND3 (Q9H8U3)): −0.5543
log2FC (IC020772.1/DMSO) (ZNF182 (P17025-1)): −0.6529
